# Laboratory results from patent US11414384B2, “P300/CBP hat inhibitors” (Constellation Pharmaceuticals, Inc., priority 2018, dated 2022).
# Molecular target: p300 HAT domain (residues 1287-1666) (Homo sapiens (Human), UniProt Q09472)
# Assay: p300 HAT SPA assay (scintillation proximity assay, acetylation of biotinylated H3(1-21) peptide)
# Type: biochemical
# Conditions: p300 HAT domain; average of at least 2 replicate titrations; read-out: P300 HAT SPA IC50
# Procedure: In a typical experiment the p300 HAT inhibitory activity of the compounds described herein was determined in accordance with the following experimental method.
# The expressed protein was purified by Ni2+ affinity, followed by anion exchange chromatography. Appropriate fractions were pooled and buffer exchanged into 20 mM Hepes pH 7.5, 150 mM NaCl, and 1 mM TCEP.
# 35 μL of the reaction volume was transferred to a 384-well streptavidin FlashPlate (PerkinElmer) using a Bravo liquid handler (Velocity 11) and incubated for 1.5 hr at RT. […] Data were analyzed in Genedata to determine inhibitor IC50 values.
# p300 HAT domain (residues 1287-1666), sequence (Q09472 1287-1666): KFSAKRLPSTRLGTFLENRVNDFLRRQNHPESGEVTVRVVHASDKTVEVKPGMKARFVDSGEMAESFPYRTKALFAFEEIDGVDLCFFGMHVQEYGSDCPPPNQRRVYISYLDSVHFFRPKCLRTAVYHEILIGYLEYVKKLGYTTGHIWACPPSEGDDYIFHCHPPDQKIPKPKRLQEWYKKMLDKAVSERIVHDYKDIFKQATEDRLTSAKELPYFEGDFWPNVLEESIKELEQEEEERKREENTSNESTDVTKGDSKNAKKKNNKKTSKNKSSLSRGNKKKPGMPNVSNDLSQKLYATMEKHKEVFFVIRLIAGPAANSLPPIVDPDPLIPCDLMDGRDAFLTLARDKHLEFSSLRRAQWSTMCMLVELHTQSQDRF
row,Compound,IC50 [nM]
1,"Cc1nnc(-c2ccc3c(C(=O)C(NCCc4ccc(Cl)cc4)c4ccccc4)c[nH]c3c2)o1 (single isomer, unassigned) [107 Isomer 2]",3280
2,"CCNC(=O)c1ccc2c(C(=O)C(NCCc3ccc(C#N)cc3Cl)c3ccccc3)c[nH]c2c1 (single isomer, unassigned) [71 Isomer 1]",> 2000
3,"CN(C)C(=O)c1cccc2c(C(=O)C(NCCc3ccc(Cl)cc3Cl)c3ccccc3)c[nH]c12 (single isomer, unassigned) [148 Isomer 1]",> 30000
4,"O=C(c1c[nH]c2cc(-c3cccnc3)ccc12)C(NCCc1ccc(F)cc1)c1ccccc1 (single isomer, unassigned) [81 Isomer 1]",12300
5,"O=C(c1c[nH]c2cc(-c3cccnc3)ccc12)C(NCCc1ccc(Cl)cc1)c1ccccc1 (single isomer, unassigned) [90 Isomer 1]",967
6,"CNC(=O)Cc1ccc(CCNC(C(=O)c2c[nH]c3ccccc23)c2ccccc2)cc1 (single isomer, unassigned) [136 Isomer 1]",8690
7,"COc1ccc(CCN[C@H](C(=O)c2c[nH]c3c(C(C)C)cccc23)c2ccccc2)cc1 (single isomer, unassigned) [145 Isomer 2]",> 60000
8,"CC(CNC(C(=O)c1cnn2cc(C(=O)NC[C@@H](C)O)ccc12)c1ccccc1)c1ccc(C#N)cc1 (single isomer, unassigned) [70 Isomer 1]",> 2000
9,"CCN(CC)C(=O)c1ccc2c(C(=O)C(NCCc3ccc(C#N)cc3)c3ccccc3)c[nH]c2c1 (single isomer, unassigned) [165 Isomer 1]",4330
10,"CC(Cc1ccc(Cl)cc1)NC(C(=O)c1c[nH]c2ccccc12)c1ccccc1 (single isomer, unassigned) [27 Isomer 3]",> 60000
11,"O=C(c1c[nH]c2ccccc12)C(NCCc1ccc(-c2c[nH]nn2)cc1)c1ccccc1 (single isomer, unassigned) [57 Isomer 1]",> 5000
12,"O=C(c1c[nH]c2cc(N3CCCC3=O)ccc12)C(NCCc1ccc(Cl)cc1)c1ccccc1 (single isomer, unassigned) [74 Isomer 1]",154
13,"Cn1cc(-c2ccc3c(C(=O)C(NCCc4ccc(C(N)=O)cc4)c4ccccc4)cnn3c2)cn1 (single isomer, unassigned) [179 Isomer 2]",248
14,"Cn1cc(-c2ccc3c(C(=O)C(NCCc4ccc(C#N)cc4Cl)c4ccccc4)c[nH]c3c2)cn1 (single isomer, unassigned) [72 Isomer 1]",733
15,"O=C(c1c[nH]c2ccccc12)C(NCCn1ccnc1)c1ccccc1 (single isomer, unassigned) [36 Isomer 1]",> 60000
16,"CCNC(=O)c1ccc2c(C(=O)C(NCCc3ccc(C#N)cc3)c3ccccc3)cnn2c1 (single isomer, unassigned) [73 Isomer 1]",286
17,"CC(Cc1ccc(C(N)=O)cc1)NC(C(=O)c1c[nH]c2ccccc12)c1ccccc1 (single isomer, unassigned) [140 Isomer 4]",> 5000

row,Compound,IC50 [nM]
1,"O=C(c1c[nH]c2ccccc12)[C@@H](NCCc1ccc(-c2nn[nH]n2)cc1)c1ccccc1 (single isomer, unassigned) [185 Isomer 2]",> 30000
2,"Cc1ccc(CCNC(C(=O)c2c[nH]c3ccccc23)c2ccccc2)cc1 (single isomer, unassigned) [38 Isomer 1]",19000
3,"O=C(c1c[nH]c2ccccc12)C(NCCc1ccc(-c2c[nH]nn2)cc1)c1ccccc1 (single isomer, unassigned) [57 Isomer 2]",287
4,"CC(CNC(C(=O)c1cnn2cc(C(=O)NC[C@@H](C)O)ccc12)c1ccccc1)c1ccc(C#N)cc1 (single isomer, unassigned) [70 Isomer 2]",64.3
5,"Cn1cc(-c2ccc3c(C(=O)C(NCCc4ccc(C#N)cc4)c4ccccc4)c[nH]c3c2F)cn1 (single isomer, unassigned) [103 Isomer 1]",3410
6,"Cc1cccc2c(C(=O)C(NC(C)Cc3ccc(Cl)cc3Cl)c3ccccc3)c[nH]c12 (single isomer, unassigned) [68 Isomer 4]",> 30000
7,"COc1ccc2c(C(=O)C(NCCc3ccc(Cl)cc3)c3ccccc3)c[nH]c2c1 (single isomer, unassigned) [60 Isomer 1]",27800
8,"O=C(c1c[nH]c2ccccc12)C(NCCn1cnc2ccccc21)c1ccccc1 (single isomer, unassigned) [37 Isomer 2]",> 60000
9,"O=C(c1c[nH]c2ccccc12)C(NCCc1ccc(Cl)cc1)c1ccccc1 (single isomer, unassigned) [5 Isomer 2]",867
10,"O=C(c1c[nH]c2ccccc12)C(NCCN1CCOCC1)c1ccccc1 (single isomer, unassigned) [18 Isomer 1]",> 60000
11,"CCC(CNC(C(=O)c1c[nH]c2ccccc12)c1ccccc1)c1ccc(Cl)cc1 (single isomer, unassigned) [59 Isomer 2]",13800
12,"Cn1cnc(-c2ccc3c(C(=O)C(NCCc4ccc(S(N)(=O)=O)cc4)c4ccccc4)c[nH]c3c2)c1 (single isomer, unassigned) [115 Isomer 1]",1490
13,"NC(=O)c1ccc(CCNC(C(=O)c2c[nH]c3cc(-c4cnn(CCO)c4)ccc23)c2ccccc2)cc1 (single isomer, unassigned) [182 Isomer 2]",514
14,"CN(C)C(=O)c1ccc2c(C(=O)C(NCCc3ccc(Cl)cc3Cl)c3ccccc3)c[nH]c2c1 (single isomer, unassigned) [152 Isomer 1]",> 30000
15,"Cn1cnc(-c2ccc3c(C(=O)C(NCCc4ccc(Cl)cc4)c4ccccc4)c[nH]c3c2)c1 (single isomer, unassigned) [106 Isomer 2]",283
16,"Cn1cc(-c2ccc3c(C(=O)C(NCCc4ccc(C#N)cc4Cl)c4ccccc4)c[nH]c3c2)cn1 (single isomer, unassigned) [72 Isomer 2]",42.4

# More lines, now with the values ahead:
row,IC50 [nM],Compound
1,> 60000,"CNC(=O)Cc1ccc(CCNC(C(=O)c2c[nH]c3ccccc23)c2ccccc2)cc1 (single isomer, unassigned) [136 Isomer 2]"
2,15700,"COCCNc1ccc(CCNC(C(=O)c2c[nH]c3ccccc23)c2ccccc2)cn1 (single isomer, unassigned) [54 Isomer 2]"
3,> 30000,"CC(Cc1ccc(Cl)cc1)NC(C(=O)c1c[nH]c2cc(-c3cnn(C)c3)ccc12)c1ccccc1 (single isomer, unassigned) [92 Isomer 2]"
4,266,"Cn1cc(-c2ccc3c(C(=O)C(NCCc4ccc(C(N)=O)cc4Cl)c4ccccc4)c[nH]c3c2)cn1 (racemic) [143 racemic, 3-chloro-4-(2-((2-(6-(1-methyl-1H-pyrazol-4-yl)-1H-indol-3-yl)-2-oxo-1-phenylethyl)amino)ethyl)benzamide]"
5,> 5000,"CN1CCN(c2ccc3c(C(=O)C(NCCc4ccc(S(N)(=O)=O)cc4)c4ccccc4)c[nH]c3c2)CC1 (single isomer, unassigned) [124 Isomer 1]"
6,239,"CC(CNC(C(=O)c1cnn2cc(-c3cnn(C)c3)ccc12)c1ccccc1)c1ccc(C#N)cc1 (single isomer, unassigned) [102 Isomer 2]"
7,> 5000,"Cn1cc(-c2ccc3c(C(=O)C(NCCc4ccc(S(N)(=O)=O)cc4)c4ccccc4)c[nH]c3c2)nn1 (single isomer, unassigned) [116 Isomer 1]"
8,4010,"N#Cc1ccc(CCNC(C(=O)c2c[nH]c3cc(CC(=O)O)ccc23)c2ccccc2)cc1 (single isomer, unassigned) [160 Isomer 2]"
9,> 60000,"O=C(c1c[nH]c2ccccc12)C(NCCc1cccc(Cl)c1)c1ccccc1 (single isomer, unassigned) [4 Isomer 1]"
10,1790,"C[C@H](NC(=O)c1ccc2c(C(=O)C(NCCc3ccc(C#N)cc3)c3ccccc3)c[nH]c2c1)C(F)(F)F (single isomer, unassigned) [169 Isomer 1]"
11,> 2000,"N#Cc1ccc(CCNC(C(=O)c2c[nH]c3cc(N4CCCC4)ccc23)c2ccccc2)cc1 (single isomer, unassigned) [125 Isomer 1]"
12,> 5000,"CCNC(=O)c1ccc2c(C(=O)C(C)NCCc3ccc(C#N)cc3)c[nH]c2c1 (single isomer, unassigned) [76 Isomer 1]"
13,17.7,"CCNC(=O)c1ccc2c(C(=O)C(NCCc3ccc(C#N)cc3Cl)c3ccccc3)c[nH]c2c1 (single isomer, unassigned) [71 Isomer 2]"
14,> 60000,"O=C(c1c[nH]c2ccccc12)C(NCCc1ccc(Cl)c(Cl)c1)c1ccccc1 (single isomer, unassigned) [20 Isomer 1]"
15,747,"CC(CNC(C(=O)c1cnn2cc(C(=O)NC[C@@H](C)O)ccc12)c1ccccc1)c1ccc(C#N)cc1 (single isomer, unassigned) [70 Isomer 3]"
16,21.1,"C[C@@H](O)CNC(=O)c1ccc2c(C(=O)C(NCCc3ccc(C#N)cc3)c3ccccc3)c[nH]c2c1 (single isomer, unassigned) [173 Isomer 2]"
17,556,"O=C(c1c[nH]c2cc(-c3ccncn3)ccc12)C(NCCc1ccc(Cl)cc1)c1ccccc1 (single isomer, unassigned) [111 Isomer 2]"
18,2360,"CNC(=O)c1ccc2c(C(=O)C(NCCc3ccc(C#N)cc3)c3ccccc3)c[nH]c2n1 (single isomer, unassigned) [67 Isomer 1]"
19,15200,"O=C(c1c[nH]c2ccccc12)C(NCCc1ccc(Cl)nc1)c1ccccc1 (single isomer, unassigned) [52 Isomer 1]"
20,> 30000,"O=C(c1c[nH]c2cc(-n3cccn3)ccc12)C(NCCc1ccc(F)cc1)c1ccccc1 (single isomer, unassigned) [118 Isomer 1]"
21,966,"O=C(c1c[nH]c2cc(-c3ccncc3)ccc12)C(NCCc1ccc(Cl)cc1)c1ccccc1 (single isomer, unassigned) [89 Isomer 2]"
22,32800,"O=C(c1c[nH]c2ccccc12)C(NCCc1ccc(C(F)(F)F)cc1)c1ccccc1 (single isomer, unassigned) [21 Isomer 2]"
